{"source": "paper PMC6155631", "about": "“Immobilized Trienzymatic System with Enhanced Stabilization for the Biotransformation of Lactose” (Molecules : A Journal of Synthetic Chemistry and Natural …, 2017)", "target": "T1, β-galactosidase from Bacillus circulans (Biolacta N-5) (Niallia circulans, UniProt E5RWQ2)", "T1 construct": "gene bga; commercial Biolacta N-5 (Daiwa Kasei), partially purified; several isoforms, called monomeric", "T1 sequence (E5RWQ2 24-1737)": "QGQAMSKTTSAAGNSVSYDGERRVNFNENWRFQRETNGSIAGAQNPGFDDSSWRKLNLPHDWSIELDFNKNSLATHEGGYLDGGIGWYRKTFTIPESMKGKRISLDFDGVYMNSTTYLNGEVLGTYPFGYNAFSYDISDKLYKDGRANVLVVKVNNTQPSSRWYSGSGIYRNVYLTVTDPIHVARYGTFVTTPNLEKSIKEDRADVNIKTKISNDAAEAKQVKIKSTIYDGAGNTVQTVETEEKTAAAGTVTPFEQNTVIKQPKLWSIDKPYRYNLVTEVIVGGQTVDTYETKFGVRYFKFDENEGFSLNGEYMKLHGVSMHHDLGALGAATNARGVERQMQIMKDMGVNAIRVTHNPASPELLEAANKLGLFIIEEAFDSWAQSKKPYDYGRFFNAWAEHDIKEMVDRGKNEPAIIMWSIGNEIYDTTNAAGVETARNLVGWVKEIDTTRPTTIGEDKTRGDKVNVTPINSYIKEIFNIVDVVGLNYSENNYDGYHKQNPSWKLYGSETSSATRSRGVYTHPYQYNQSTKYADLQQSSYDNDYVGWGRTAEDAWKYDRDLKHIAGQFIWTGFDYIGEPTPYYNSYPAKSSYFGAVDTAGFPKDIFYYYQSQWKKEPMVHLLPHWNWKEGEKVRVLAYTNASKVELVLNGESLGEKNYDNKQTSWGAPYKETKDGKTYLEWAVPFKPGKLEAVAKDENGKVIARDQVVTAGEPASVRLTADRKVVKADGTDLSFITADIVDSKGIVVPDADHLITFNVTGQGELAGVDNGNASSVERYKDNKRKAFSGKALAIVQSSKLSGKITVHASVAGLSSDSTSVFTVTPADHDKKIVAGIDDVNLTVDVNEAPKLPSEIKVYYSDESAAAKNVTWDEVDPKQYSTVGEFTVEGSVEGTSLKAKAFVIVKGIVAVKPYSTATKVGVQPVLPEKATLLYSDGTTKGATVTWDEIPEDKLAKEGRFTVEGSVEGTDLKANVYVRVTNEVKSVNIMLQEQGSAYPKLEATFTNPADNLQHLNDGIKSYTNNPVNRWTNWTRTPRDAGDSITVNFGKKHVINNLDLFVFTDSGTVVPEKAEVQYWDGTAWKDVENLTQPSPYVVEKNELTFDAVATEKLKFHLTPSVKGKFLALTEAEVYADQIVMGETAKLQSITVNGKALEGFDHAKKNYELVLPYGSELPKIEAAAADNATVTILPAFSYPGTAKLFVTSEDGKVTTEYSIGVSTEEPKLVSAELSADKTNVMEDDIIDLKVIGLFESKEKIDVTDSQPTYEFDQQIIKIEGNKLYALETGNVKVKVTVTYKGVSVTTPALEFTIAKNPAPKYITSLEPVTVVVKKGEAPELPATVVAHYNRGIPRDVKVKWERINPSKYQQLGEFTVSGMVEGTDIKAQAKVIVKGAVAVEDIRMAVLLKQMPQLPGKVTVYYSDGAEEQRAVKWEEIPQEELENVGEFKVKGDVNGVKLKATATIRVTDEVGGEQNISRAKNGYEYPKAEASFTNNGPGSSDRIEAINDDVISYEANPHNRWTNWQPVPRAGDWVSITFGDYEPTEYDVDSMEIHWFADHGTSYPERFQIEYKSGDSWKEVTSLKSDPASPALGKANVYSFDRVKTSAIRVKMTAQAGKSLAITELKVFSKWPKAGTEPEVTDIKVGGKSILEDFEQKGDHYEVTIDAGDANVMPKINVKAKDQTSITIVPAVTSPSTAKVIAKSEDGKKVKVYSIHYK", "test": "batch hydrolysis, HPLC", "assay_type": "biochemical", "conditions": "soluble enzyme together with P1 and P2; Mozzarella whey lactose, 50 °C, 6 h", "source_text": "batch hydrolysis, HPLC on β-galactosidase from Bacillus circulans (Biolacta N-5)", "data": [{"compound": "OC[C@H]1O[C@@H](O[C@H]2[C@H](O)[C@@H](O)C(O)O[C@@H]2CO)[C@H](O)[C@@H](O)[C@H]1O", "note": "(stereo partly shown) [lactose]", "values": [{"measurement": "Lactolysis (%)", "result": "76 ± 1", "unit": "%"}]}]}
